Experimental findings from patent US6274559A, “Liver protection or treatment agents comprising asiatic acid derivatives as the active component” (Dong Kook Pharmaceutical Co., Ltd., priority 1997, dated 2001) are described below.

One may read the LD50 as the dose at which mortality reaches 50%. Read a low LD50 as greater toxicity.

The subject of data set [1] is liver cell (carbon tetrachloride-induced toxicity). Description: Protection effect against carbon tetrachloride-induced toxicity of liver cell (GPT activity, relative protection). It is filed as cell-based, male Wister rats. The settings on record: 10 mM carbon tetrachloride, 1.5 h; for Relative liver cell protection at 5 µg/mL / Relative liver cell protection at 50 µg/mL: Rattus norvegicus. The protocol:
(§1) As experimental animals, male Wister rats weighing between 150~200 g were used. All rats were fasted during 18~24 h, and then the isolation of liver cells was performed by using the two-step collagenase flow-through method [D. M. Crisp and C. I. Pogson, Biochem., 126, 1009 (1972)], which is a form that the Berry & Friend method [M. N. Berry and D. S. Friend, J. Cell, Biol., 43, 5006 (1969)] is a little modified.
(§2) These liver cells getting into toxicity induced by said methods were incubated separately in the incubation mediums containing said compounds of 5 μg/ml and 50 μg/ml. Then, withdrawing the incubation medium, the activity of glutamic pyruvic transaminase (GPT) was determined by the Reitman-Frankel method [S. Reitman and S. Frankel, Am, J. Cli. Pathol., 28, 56 (1957)]. The GPT value of healthy liver cell was defined as 100%, and that of liver cell getting into toxicity induced by said methods was defined as 0%. At the basis of said definition, the GPT values of liver cells recovered from galactosamine-induced toxicity by the compounds were converted into relative protections (%) to show the protection effect of liver cell against the toxicity by the compounds.
To investigate the protection effect of the compounds of the formula 1 of this invention against carbon tetrachloride-induced toxicity of liver cell, the following experiment was performed.
(§3) The experiment was performed in the same manner as in Experimental example 1, except that carbon tetrachloride was used by following method to induce liver cells to get into the toxicity.
(§4) The isolated liver cells were incubated in a normal incubation medium for 24 h, and then more incubated in 10 mM carbon tetrachloride-containing incubation medium for 1.5 h to induce liver cells to get into the toxicity of carbon tetrachloride [Y. Kiso, Y. Suzuki and H. Hikino, Planta. Med., 49, 222 (1983)].

The subject of data set [2] is liver cell (galactosamine-induced toxicity). Kind of data set: Protection effect against galactosamine-induced toxicity of liver cell (GPT activity, relative protection). It is filed as cell-based, male Wister rats. The settings on record: 1.5 mM galactosamine, 14 h, healthy liver cell = 100%, toxicity = 0%; for Relative liver cell protection (%) at 5 µg/mL / Relative liver cell protection (%) at 50 µg/mL: Rattus norvegicus.
Text: To investigate the protection effect of the compounds of the formula 1 of this invention, i. e. 2-oxoasiatic acid, 2-methylasiatic acid, methyl 2α-acetoxyurs-12-en-23-al-3-on-28-oate, tetrahydropyranyl 3β,23-diacetoxyurs-12-en-28-oate, ethoxymethyl 2α-hydroxy-3β,23-isopropylidendioxyurs-12-en-28-oate, methyl 2,3-β-epoxy-12-en-23-carbomethoxyurs-28-oate, methyl 2,3-β-epoxy-12-en-23-benzamidours-28-oate, 1-ethoxyethyl asiatate and 2',3',4',6'-tetra-O-acetylglucosyl 2,3,23-tri-O-acetylurs-28-oate, against galactosamine-induced toxicity of liver cell, the following experiment was performed.
as §1
(§5) The isolated liver cells were incubated in a normal incubation medium for 1.5 h, and then more incubated in 1.5 mM galactosamine-containing incubation medium for 14 h to induce liver cells to get into the toxicity of galactosamine [Y. Kris, M. Tohkin and H. Hikino, J. Nat. Prod., 46, 841 (1983)].
as §2

Data set [3] has the same test system. Kind of data set: Concentration dependency of protection effect against galactosamine-induced toxicity of liver cell. It is filed as cell-based, male Wister rats. The following applies: for Relative liver cell protection (%) at 1 µM / Relative liver cell protection (%) at 10 µM / Relative liver cell protection (%) at 50 µM / Relative liver cell protection (%) at 100 µM / Relative liver cell protection (%) at 200 µM: Rattus norvegicus. The protocol: as §1, §5, §2
To investigate concentration dependency of the protection effect of the compounds of the formula 1 of this invention, i. e. 2-oxoasiatic acid, 2-methylasiatic acid and methyl 2α-acetoxyurs-12-en-23-al-3-on-28-oate, against galactosamine-induced toxicity of liver cell, the experiment was performed in the same manner as in Experimental example 1, except that the compound concentrations tested were 1, 10, 50, 100 and 200 μM.

A further data set deals with male ICR mice. Kind of data set: Safety study through toxicity test in mice by peritoneal injection. The protocol:
(§6) Administering 2-oxoasiatic acid of various concentrations to male ICR mice weighing between 20~25 g by peritoneal injection, the toxicity of 2oxoasiatic acid was tested.

The nature of a further data set: in vivo. The following applies: mouse, in vivo, ip. The protocol:
as §6

Data set [4] relates to liver cell (carbon tetrachloride-induced toxicity). Description: Concentration dependency of protection effect of liver cell against carbon tetrachloride-induced toxicity. It counts as cell-based, male Wister rats. As to the method: as §1, §2, §3, §4
To investigate the concentration dependency of the protection effect of the compounds of the formula 1 of this invention, i. e. 2-oxoasiatic acid, against carbon tetrachloride-induced toxicity of liver cell, the experiment was performed in the same manner as in Experimental example 2, except that the compound concentrations tested were 1, 10, 50, 100 and 200 μM.

Setting [5] is: 5 μg/ml of compound concentration.
The mark [6] stands for this setting: 50 μg/ml of compound concentration.

As to “2',3',4',6'-tetra-O-acetylglucosyl 2,3,23-tri-O-acetylurs-28-oate”, the “Relative liver cell protection (%)” value in data set [1] (setting [5]) was 39%; in data set [1] (setting [6]), 34%; in data set [2] (setting [5]), 79%; in data set [2] (setting [6]), 21%.

As to 2-methylasiatic acid, the “concentration dependency of protection effect” value (“concentration dependency” for short) in data set [3] (100 and 200 μM) is “the protection effects of them rapidly decreased”; in data set [3] (range of 1~50 μM) it was “the greater were the protection effects”. Also, the “Relative liver cell protection (%)” value amounted to 31.9% in data set [3] (compound 1 μM); 40.3% in data set [3] (compound 10 μM); 58.2% in data set [3] (compound 50 μM); 43.9% in data set [3] (compound 100 μM); 0.0% in data set [3] (compound 200 μM); 29% in data set [1] (setting [5]). Moreover, the results for the “Relative liver cell protection (%)” value in data set [1] (setting [6]), in data set [2] (setting [5]) and in data set [2] (setting [6]) were 9%, 43% and 62%, respectively.

`CCOC(C)OC(=O)[C@]12CC[C@@H](C)[C@H](C)[C@H]1C1=CC[C@@H]3[C@@]4(C)C[C@@H](O)[C@H](O)[C@@](C)(CO)[C@@H]4CC[C@@]3(C)[C@]1(C)CC2` (stereo partly shown) [1-Ethoxyethyl asiatate, 1-ethoxyethyl asiatate] yielded a Relative liver cell protection at 5 µg/mL in data set [1] (setting [5]) of 8%. This molecule also had a Relative liver cell protection at 50 µg/mL in data set [1] (setting [6]) of 7%. This molecule also showed a Relative liver cell protection (%) at 5 µg/mL in data set [2] (setting [5]) of 66%. The Relative liver cell protection (%) at 50 µg/mL in data set [2] (setting [6]) was determined as 0%.

For `C[C@H]1[C@H](C)CC[C@]2(C(=O)O)CC[C@]3(C)C(=CC[C@@H]4[C@@]5(C)CC(=O)[C@H](O)[C@@](C)(CO)[C@@H]5CC[C@]43C)[C@H]12` [2-Oxoasiatic acid, 2-oxoasiatic acid], in the data set on male ICR mice (male ICR mice, peritoneal injection, fatal dose), the opisthotonus result is recorded as “opisthotonus was showed at a fatal dose”. Further, in the data set on male ICR mice (mouse, in vivo), the “body weight of surviving mice” value is reported as “did not change”; the motor activity entry is “motor activity was decreased dose-dependently”; the “pilo-erection, tachypnea and convulsion” value is “induced dose-dependently”; the “recovery of surviving mice” value is reported as “rapid recovery”. For the same molecule, in the data set on male ICR mice (mouse, in vivo), the type of toxicity entry is “typical toxicity of central nervous system”. The same molecule yielded an LD50 in “in vivo” of 750 mg/kg. Moreover, in data set [3] (100 and 200 μM), the “concentration dependency” value is “the protection effects of them rapidly decreased”. This molecule also came in with a Relative liver cell protection (%) at 1 µM in data set [3] (compound 1 μM) of 29.8%. This molecule gave a Relative liver cell protection (%) at 10 µM in data set [3] (compound 10 μM) of 43.2%. In data set [3] (compound 50 μM), this molecule yielded a Relative liver cell protection (%) at 50 µM of 50.4%. Further, in data set [3] (compound 100 μM), the Relative liver cell protection (%) at 100 µM came out at 25.3%. The Relative liver cell protection (%) at 200 µM in data set [3] (compound 200 μM) worked out at 8.5%. Further, in data set [3] (range of 1~50 μM), the “concentration dependency” value is recorded as “the greater were the protection effects”. Moreover, the relative liver cell protection at 1 µM in data set [4] (Rattus norvegicus, compound 1 μM) was 1.6%. This molecule also returned a relative liver cell protection at 10 µM in data set [4] (Rattus norvegicus, compound 10 μM) of 5%. This molecule also came in with a relative liver cell protection at 50 µM in data set [4] (Rattus norvegicus, compound 50 μM) of 3.3%. The relative liver cell protection at 100 µM in data set [4] (Rattus norvegicus, compound 100 μM) came out at 30.9%. Moreover, the relative liver cell protection at 200 µM in data set [4] (Rattus norvegicus, compound 200 μM) came to 48.1%. In addition, the “concentration dependency” value in data set [4] (concentration range of 1~200 μM) was “the greater was the protection effects”. In addition, the Relative liver cell protection at 5 µg/mL in data set [1] (setting [5]) is 30%. Moreover, the Relative liver cell protection at 50 µg/mL in data set [1] (setting [6]) came to 44%. The molecule further yielded a Relative liver cell protection (%) at 5 µg/mL in data set [2] (setting [5]) of 15%. This molecule gave a Relative liver cell protection (%) at 50 µg/mL in data set [2] (setting [6]) of 62%.

For the molecule `CCOCOC(=O)[C@]12CC[C@@H](C)[C@H](C)[C@H]1C1=CC[C@@H]3[C@@]4(C)C[C@@H](O)[C@@H]5OC(C)(C)OC[C@@]5(C)[C@@H]4CC[C@@]3(C)[C@]1(C)CC2` [ethoxymethyl 2α-hydroxy-3β,23-isopropylidendioxyurs-12-en-28-oate], in data set [1] (setting [5]), the Relative liver cell protection at 5 µg/mL was determined as 15%. The molecule further returned a Relative liver cell protection at 50 µg/mL in data set [1] (setting [6]) of 5%. The Relative liver cell protection (%) at 5 µg/mL in data set [2] (setting [5]) came out at 66%. The Relative liver cell protection (%) at 50 µg/mL in data set [2] (setting [6]) amounted to 45%.

`COC(=O)[C@]12CC[C@@H](C)[C@H](C)[C@H]1C1=CC[C@@H]3[C@@]4(C)C[C@@H](OC(C)=O)C(=O)[C@@](C)(C=O)[C@@H]4CC[C@@]3(C)[C@]1(C)CC2` [methyl 2α-acetoxyurs-12-en-23-al-3-on-28-oate]: the “concentration dependency” value is given as “the protection effects of them rapidly decreased” in data set [3] (100 and 200 μM); “the greater were the protection effects” in data set [3] (range of 1~50 μM). The molecule further showed a Relative liver cell protection (%) at 1 µM in data set [3] (compound 1 μM) of 27.4%. Besides, the Relative liver cell protection (%) at 10 µM in data set [3] (compound 10 μM) worked out at 39%. The same molecule registered a Relative liver cell protection (%) at 50 µM in data set [3] (compound 50 μM) of 60%. In data set [3] (compound 100 μM), this molecule showed a Relative liver cell protection (%) at 100 µM of 33.1%. The Relative liver cell protection (%) at 200 µM in data set [3] (compound 200 μM) worked out at 0%. In data set [1] (setting [5]), this molecule yielded a Relative liver cell protection at 5 µg/mL of 21%. The Relative liver cell protection at 50 µg/mL in data set [1] (setting [6]) was found to be 0%. The molecule also had a Relative liver cell protection (%) at 5 µg/mL in data set [2] (setting [5]) of 42%. This molecule showed a Relative liver cell protection (%) at 50 µg/mL in data set [2] (setting [6]) of 80%.

For the molecule `CC(=O)OC[C@@]1(C)[C@@H]2CC[C@]3(C)[C@H](CC=C4[C@@H]5[C@@H](C)[C@H](C)CC[C@]5(C(=O)OC5CCCCO5)CC[C@]43C)[C@@]2(C)CC[C@@H]1OC(C)=O` (stereo partly drawn) [tetrahydropyranyl 3β,23-diacetoxyurs-12-en-28-oate], the Relative liver cell protection at 5 µg/mL in data set [1] (setting [5]) was 42%. In data set [1] (setting [6]), this molecule showed a Relative liver cell protection at 50 µg/mL of 30%. This molecule yielded a Relative liver cell protection (%) at 5 µg/mL in data set [2] (setting [5]) of 58%. For the same molecule, the Relative liver cell protection (%) at 50 µg/mL in data set [2] (setting [6]) is 66%.

“methyl 2,3-β-epoxy-12-en-23-benzamidours-28-oate”: the “Relative liver cell protection (%)” value in data set [1] (setting [5]) is recorded as 0%; in data set [1] (setting [6]), 23%; in data set [2] (setting [5]), 38%; in data set [2] (setting [6]), 40%.

Turning to “methyl 2,3-β-epoxy-12-en-23-carbomethoxyurs-28-oate”, the “Relative liver cell protection (%)” value came to 0% in data set [1] (setting [5]), 0% in data set [1] (setting [6]), 26% in data set [2] (setting [5]) and 53% in data set [2] (setting [6]).
